Measurements taken from patent publication US20250026765A1, “SPIROHETEROCYCLE DERIVATIVE HAVING SEROTONIN RECEPTOR BINDING ACTIVITY” (Shionogi & Co., Ltd., priority 2021, published 2025).
Like-named read-outs stand apart in the source and are kept apart here.

Target: human recombinant 5-HT2C receptor (Homo sapiens (Human), UniProt P28335)
Assay: 5-HT2C receptor binding inhibition test ([3H]-Mesulergine)
Settings: Jump-In HEK cell membrane, 37° C. 2 hours
Method in brief: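 Radioligand displacement on HEK membranes expressing human recombinant 5-HT2C (0.5 μg/well), [3H]-mesulergine near its Kd, in pH 7.4 Tris-HCl buffer with NaCl, MgCl2, KCl, CaCl2 and 0.1% BSA, 2 h at 37° C. Bound radioactivity measured after GF/B filtration; non-specific binding defined with 500 μmol/L serotonin, Ki from dose-response curve.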

[1] = read-out: human serotonin 5-HT2C receptor binding activity Ki

Chain of human recombinant 5-HT2C receptor (P28335 33-458): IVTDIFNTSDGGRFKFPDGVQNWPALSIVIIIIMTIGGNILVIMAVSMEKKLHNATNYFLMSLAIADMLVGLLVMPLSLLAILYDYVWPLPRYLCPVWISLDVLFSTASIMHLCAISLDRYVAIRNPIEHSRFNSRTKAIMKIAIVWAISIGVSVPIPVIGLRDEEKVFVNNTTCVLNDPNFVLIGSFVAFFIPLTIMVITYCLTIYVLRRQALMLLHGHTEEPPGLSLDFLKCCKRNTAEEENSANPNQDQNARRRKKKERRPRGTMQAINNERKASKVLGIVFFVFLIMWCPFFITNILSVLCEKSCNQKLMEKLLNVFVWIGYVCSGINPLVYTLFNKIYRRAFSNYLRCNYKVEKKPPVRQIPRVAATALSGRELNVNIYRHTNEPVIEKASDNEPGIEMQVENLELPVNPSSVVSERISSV

Row | SMILES | Ki [1] [nM] | Ki (read-out: h-5-HT2C Ki) [nM]
1 | CC(C)COc1ccc(CN(Cc2coc(CF)n2)C2=NOC3(CCN(C)CC3)N2)cc1 [Compound I-067] | 0.95 | < 10
2 | CCCCOc1ccc(CN(Cc2coc(C)n2)C2=NOC3(CCN(C)CC3)N2)cc1 [Compound I-080] | 0.579 | < 10
3 | Cc1nc(CN(Cc2ccc(OCC(F)(F)C(F)(F)F)cc2F)C2=NOC3(CCN(C)CC3)N2)co1 [Compound I-104] | 0.578 | 
4 | Cc1nc(CN(Cc2ccc(CCC(F)(F)F)cc2)C2=NOC3(CCN(C)CC3)N2)co1 [Compound I-125] | 0.694 | 
5 | Cc1nc(CN(Cc2ccc(OCC(C)C)cc2F)C2=NOC3(CCN(C)CC3)N2)co1 [Compound I-128] | 0.374 | 

The next lines start with results.

Row | Ki [1] [nM] | SMILES | Ki (read-out: h-5-HT2C Ki) [nM]
6 | 1.13 | CCCCOc1ccc(CN(Cc2coc(CF)n2)C2=NOC3(CCN(C)CC3)N2)cc1 [Compound I-105] | 
7 | 1.6 | CCCCOc1ccc(CN(Cc2cnn(C)n2)C2=NOC3(CCN(C)CC3)N2)cc1 [Compound I-113] | 
8 | 0.543 | CCCCOc1ccc(CN(Cc2coc(C)n2)C2=NOC3(CCN(C)CC3)N2)c(F)c1 [Compound I-114] | 
9 | 0.469 | CCCCOc1ccc(CN(Cc2coc(C)n2)C2=NOC3(CCN(C)CC3)N2)cc1F [Compound I-115] | 
